Tests used:
[1] = biological target: T1, Alpha-1A adrenergic receptor (Homo sapiens) (UniProt P35348); assay: Antagonist activity at human full-length N-terminal SNAP-tagged alpha1A adrenoceptor expressed in HEK293 cells assessed as inhibition of agonist-induced calcium mobilization at 10 uM preincubated for 10 mins followed by agonist addition by fluo-4 AM dye-based assay relative to control; format: functional, cell-based
T1 sequence (whole entry): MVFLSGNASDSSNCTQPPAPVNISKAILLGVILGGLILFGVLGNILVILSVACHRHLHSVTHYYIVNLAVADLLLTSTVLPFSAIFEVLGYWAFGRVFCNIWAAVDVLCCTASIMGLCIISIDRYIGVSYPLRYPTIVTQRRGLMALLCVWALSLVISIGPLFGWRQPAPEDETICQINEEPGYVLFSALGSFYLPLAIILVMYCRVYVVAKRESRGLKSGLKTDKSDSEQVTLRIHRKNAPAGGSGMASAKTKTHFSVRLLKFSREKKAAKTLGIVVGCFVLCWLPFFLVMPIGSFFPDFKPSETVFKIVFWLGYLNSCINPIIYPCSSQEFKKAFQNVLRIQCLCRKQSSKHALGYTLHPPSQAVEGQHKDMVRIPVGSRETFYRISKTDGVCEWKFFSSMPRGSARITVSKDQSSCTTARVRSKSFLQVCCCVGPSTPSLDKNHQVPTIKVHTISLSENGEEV

[2] = species on record: Homo sapiens; assay: Selectivity ratio of IC50 for human full-length N-terminal SNAP-tagged alpha1B adrenoceptor to IC50 for human full-length N-terminal SNAP-tagged alpha1A adrenoceptor
[3] = species on record: Homo sapiens; assay: Selectivity ratio of IC50 for human full-length N-terminal SNAP-tagged alpha1D adrenoceptor to IC50 for human full-length N-terminal SNAP-tagged alpha1A adrenoceptor
[4] = biological target: T2, Alpha-1A adrenergic receptor (Homo sapiens, UniProt P35348)
T2 sequence (P35348 whole entry): T1 sequence (whole entry)
Description: Antagonist activity at human full-length N-terminal SNAP-tagged alpha1A adrenoceptor expressed in HEK293 cells assessed as inhibition of agonist-induced calcium mobilization preincubated for 10 mins followed by agonist addition by fluo-4 AM dye-based assay

[5] = biological target: T3, Alpha-1B adrenergic receptor (Homo sapiens, UniProt P35368)
T3 sequence (P35368 whole entry): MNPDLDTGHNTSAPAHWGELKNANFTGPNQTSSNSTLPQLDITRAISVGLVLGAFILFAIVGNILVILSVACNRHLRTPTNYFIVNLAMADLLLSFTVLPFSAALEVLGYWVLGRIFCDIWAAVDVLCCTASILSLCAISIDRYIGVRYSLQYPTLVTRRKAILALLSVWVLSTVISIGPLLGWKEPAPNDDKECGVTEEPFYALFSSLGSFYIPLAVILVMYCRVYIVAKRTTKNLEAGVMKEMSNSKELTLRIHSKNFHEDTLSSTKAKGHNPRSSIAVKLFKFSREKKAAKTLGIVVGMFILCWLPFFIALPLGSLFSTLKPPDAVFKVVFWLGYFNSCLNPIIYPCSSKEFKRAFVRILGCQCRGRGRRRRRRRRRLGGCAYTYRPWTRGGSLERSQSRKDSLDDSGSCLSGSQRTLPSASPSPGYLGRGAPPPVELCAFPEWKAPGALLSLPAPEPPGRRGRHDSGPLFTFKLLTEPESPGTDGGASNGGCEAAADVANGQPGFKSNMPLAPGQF
Description: Antagonist activity at human full-length N-terminal SNAP-tagged alpha1B adrenoceptor expressed in HEK293 cells assessed as inhibition of agonist-induced calcium mobilization preincubated for 10 mins followed by agonist addition by fluo-4 AM dye-based assay

[6] = biological target: T4, Alpha-1D adrenergic receptor (Homo sapiens, UniProt P25100)
T4 sequence (P25100 whole entry): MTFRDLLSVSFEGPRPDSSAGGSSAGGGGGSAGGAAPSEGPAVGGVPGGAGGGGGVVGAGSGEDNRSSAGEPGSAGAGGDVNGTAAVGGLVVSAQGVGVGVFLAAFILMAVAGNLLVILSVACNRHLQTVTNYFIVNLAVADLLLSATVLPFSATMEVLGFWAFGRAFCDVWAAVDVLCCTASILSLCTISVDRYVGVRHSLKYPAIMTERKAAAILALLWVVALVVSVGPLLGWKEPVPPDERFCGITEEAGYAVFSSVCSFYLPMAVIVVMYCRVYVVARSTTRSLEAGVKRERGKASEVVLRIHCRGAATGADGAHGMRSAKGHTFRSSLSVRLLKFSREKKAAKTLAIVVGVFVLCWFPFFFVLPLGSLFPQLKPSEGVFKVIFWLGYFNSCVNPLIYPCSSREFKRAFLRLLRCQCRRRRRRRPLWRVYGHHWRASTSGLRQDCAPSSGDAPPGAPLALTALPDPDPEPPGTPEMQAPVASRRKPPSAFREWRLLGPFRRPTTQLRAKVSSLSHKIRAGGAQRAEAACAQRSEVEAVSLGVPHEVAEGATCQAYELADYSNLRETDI
Description: Antagonist activity at human full-length N-terminal SNAP-tagged alpha1D adrenoceptor expressed in HEK293 cells assessed as inhibition of agonist-induced calcium mobilization preincubated for 10 mins followed by agonist addition by fluo-4 AM dye-based assay

[7] = biological target: T5, Alpha-1A adrenergic receptor (Rattus norvegicus, UniProt P43140); assay: Displacement of [125I]-BE2254 from Wistar rat alpha1A adrenoceptor after 20 mins
T5 sequence (P43140 whole entry): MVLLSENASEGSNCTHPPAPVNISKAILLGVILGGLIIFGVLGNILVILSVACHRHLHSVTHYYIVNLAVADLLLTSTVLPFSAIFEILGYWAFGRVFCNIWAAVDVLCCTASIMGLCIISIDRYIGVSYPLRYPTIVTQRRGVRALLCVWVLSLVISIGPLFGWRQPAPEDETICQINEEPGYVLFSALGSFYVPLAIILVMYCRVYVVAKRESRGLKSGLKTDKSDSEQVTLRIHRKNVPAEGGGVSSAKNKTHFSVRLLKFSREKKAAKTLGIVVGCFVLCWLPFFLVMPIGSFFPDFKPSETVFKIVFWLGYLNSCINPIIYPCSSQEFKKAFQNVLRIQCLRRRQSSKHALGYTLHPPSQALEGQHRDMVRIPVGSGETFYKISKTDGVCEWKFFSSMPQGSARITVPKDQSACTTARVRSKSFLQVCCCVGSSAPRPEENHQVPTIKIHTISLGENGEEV

[8] = biological target: T5, Alpha-1A adrenergic receptor; assay: Antagonist activity at alpha1A adrenoceptor in Sprague-Dawley rat urethra assessed as inhibition of norepinephrine-induced smooth muscle contraction after 20 mins
[9] = biological target: T6, Alpha-1B adrenergic receptor (Rattus norvegicus, UniProt P15823); assay: Antagonist activity at alpha1B adrenoceptor in Sprague-Dawley rat aorta assessed as inhibition of norepinephrine-induced smooth muscle contraction after 20 mins
T6 sequence (P15823 whole entry): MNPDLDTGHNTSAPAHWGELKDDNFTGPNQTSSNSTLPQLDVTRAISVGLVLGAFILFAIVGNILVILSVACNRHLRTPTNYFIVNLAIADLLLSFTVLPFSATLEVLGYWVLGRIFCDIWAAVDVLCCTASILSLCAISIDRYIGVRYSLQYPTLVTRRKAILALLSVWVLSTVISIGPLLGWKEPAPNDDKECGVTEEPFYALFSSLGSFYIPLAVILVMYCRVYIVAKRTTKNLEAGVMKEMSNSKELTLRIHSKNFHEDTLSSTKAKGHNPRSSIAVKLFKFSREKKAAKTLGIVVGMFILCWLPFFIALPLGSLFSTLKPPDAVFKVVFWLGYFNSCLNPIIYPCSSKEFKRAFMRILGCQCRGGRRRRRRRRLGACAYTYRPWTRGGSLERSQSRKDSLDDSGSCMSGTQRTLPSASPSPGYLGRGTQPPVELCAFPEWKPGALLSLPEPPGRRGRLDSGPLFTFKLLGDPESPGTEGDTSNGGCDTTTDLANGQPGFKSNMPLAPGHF

[10] = Selectivity ratio of IC50 for alpha1B adrenoceptor in Sprague-Dawley rat aorta to IC50 for alpha1A adrenoceptor in Sprague-Dawley rat urethra
[11] = test system: Rattus norvegicus; assay: Inhibition of micturition frequency in po dosed Sprague-Dawley rat benign prostatic hyperplasia model administered 20 mins followed by distilled watering loading measured for 2 hrs; format: functional; conditions: read-out: MED
[12] = test system: Rattus norvegicus; assay: Increase in voided volume in po dosed Sprague-Dawley rat benign prostatic hyperplasia model administered 20 mins followed by distilled watering loading measured for 2 hrs; format: functional; conditions: read-out: MED
[13] = biological target: Voltage-gated inwardly rectifying potassium channel KCNH2 (Homo sapiens, UniProt Q12809); assay: Inhibition of human ERG
Voltage-gated inwardly rectifying potassium channel KCNH2, sequence (Q12809 whole entry): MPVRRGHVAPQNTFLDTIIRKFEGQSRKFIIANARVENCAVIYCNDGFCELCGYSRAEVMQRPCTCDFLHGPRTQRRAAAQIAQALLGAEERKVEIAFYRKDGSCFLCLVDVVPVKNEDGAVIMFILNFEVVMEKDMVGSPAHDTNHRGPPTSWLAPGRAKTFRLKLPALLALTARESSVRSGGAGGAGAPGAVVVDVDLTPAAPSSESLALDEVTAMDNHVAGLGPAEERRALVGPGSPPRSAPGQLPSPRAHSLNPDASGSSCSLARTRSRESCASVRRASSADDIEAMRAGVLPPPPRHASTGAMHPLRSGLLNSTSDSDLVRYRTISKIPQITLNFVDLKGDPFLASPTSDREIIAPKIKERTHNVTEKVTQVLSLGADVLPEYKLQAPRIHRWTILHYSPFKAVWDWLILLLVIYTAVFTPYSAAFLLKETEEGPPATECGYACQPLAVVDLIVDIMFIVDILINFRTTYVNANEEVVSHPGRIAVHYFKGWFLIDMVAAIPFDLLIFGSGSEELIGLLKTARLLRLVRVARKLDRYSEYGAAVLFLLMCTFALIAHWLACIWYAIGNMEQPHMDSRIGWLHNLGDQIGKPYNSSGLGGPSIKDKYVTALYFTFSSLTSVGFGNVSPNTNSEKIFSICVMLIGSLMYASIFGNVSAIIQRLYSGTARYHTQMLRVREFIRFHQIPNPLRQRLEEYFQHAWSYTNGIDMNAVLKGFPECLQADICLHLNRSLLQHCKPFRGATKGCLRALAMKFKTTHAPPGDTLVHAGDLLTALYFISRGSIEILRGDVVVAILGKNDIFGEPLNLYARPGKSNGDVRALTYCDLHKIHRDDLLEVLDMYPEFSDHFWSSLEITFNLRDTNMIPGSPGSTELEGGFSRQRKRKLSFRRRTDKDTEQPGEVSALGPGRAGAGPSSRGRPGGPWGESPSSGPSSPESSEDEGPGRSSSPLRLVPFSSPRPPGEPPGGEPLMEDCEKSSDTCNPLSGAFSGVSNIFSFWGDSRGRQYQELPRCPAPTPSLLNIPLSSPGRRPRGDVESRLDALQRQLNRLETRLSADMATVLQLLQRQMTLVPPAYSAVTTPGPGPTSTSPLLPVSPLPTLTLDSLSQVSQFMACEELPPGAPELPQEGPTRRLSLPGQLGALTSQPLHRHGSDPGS

Row | Compound | inhibition [1] | IC50 [4] | further results
1 | COc1ccc2c3c([nH]c2c1)CN1CCc2cc4c(cc2C1C3)OCO4 (centres undefined) | 100% | 0.594 µM | Ratio IC50 [2]: > 16.8; Ratio IC50 [3]: > 16.8; IC50 [5]: > 10 µM; IC50 [6]: > 10 µM
2 | COc1ccc(C2c3[nH]c4ccccc4c3CC3c4cc5c(cc4CCN32)OCO5)cc1 (centres undefined) | 0% | – | –
3 | COc1ccc2c(c1)CCN1C(C)c3[nH]c4ccccc4c3CC21 (centres undefined) | 90% | 8.67 µM | –
4 | CCOc1cc2c(cc1OC)C1Cc3c([nH]c4ccc(OC)cc34)CN1CC2 (centres undefined) | 17% | – | –
5 | COc1cc2c(cc1O)[C@@H]1Cc3ccc(O)c(OC)c3CN1CC2 [STEPHOLIDINE] | – | – | Ki [7]: 2.24 µM
6 | COc1cc2c(cc1OC)C1Cc3c([nH]c4ccccc34)C(c3ccc(F)cc3)N1CC2 (centres undefined) | 0% | – | –
7 | COc1ccc2[nH]c3c(c2c1)CC1c2cc(OC)c(O)cc2CCN1C3 (centres undefined) | 0% | – | –
8 | COc1ccc2c(c1OC)CN1CCc3cc4c(cc3C1C2)OCO4 (centres undefined) [TETRAHYDROBERBERINE] | – | – | Ki [7]: 1.12 µM
9 | CCC1c2[nH]c3ccccc3c2CC2c3cc4c(cc3CCN21)OCO4 (centres undefined) | 82% | > 10 µM | –
10 | Fc1ccc(C2c3[nH]c4ccccc4c3CC3c4cc5c(cc4CCN32)OCO5)cc1 (centres undefined) | 0% | – | –
11 | c1ccc(COc2ccc3[nH]c4c(c3c2)CC2c3cc5c(cc3CCN2C4)OCO5)cc1 (centres undefined) | 100% | 2.88 µM | –
12 | CCCCOc1cc2c(cc1OC)C1Cc3c([nH]c4ccc(OC)cc34)CN1CC2 (centres undefined) | 63% | – | –
13 | COc1ccc2[nH]c3c(c2c1)C[C@@H]1c2cc4c(cc2CCN1C3)OCO4 | 100% | 3.19 µM | –
14 | c1c2c(cc3c1OCO3)CN1CCc3cc4c(cc3C1C2)OCO4 (centres undefined) | – | 0.462 µM | –
15 | CCCOc1cc2c(cc1OC)C1Cc3c([nH]c4ccc(OC)cc34)CN1CC2 (centres undefined) | 21% | – | –
16 | COc1ccc2c(c1)CCN1C2Cc2c([nH]c3ccccc23)C1C1CC1 (centres undefined) | 31% | – | –
17 | COc1ccc2[nH]c3c(c2c1)CC1c2cc(O)c(OC)cc2CCN1C3 (centres undefined) | 56% | – | –
18 | COc1cc2c(cc1OC)[C@@H]1Cc3ccc(OC)c(OC)c3CN1CC2 | 41.2% | – | –
19 | c1ccc2c3c([nH]c2c1)CN1CCc2cc4c(cc2[C@@H]1C3)OCO4 | 99% | 0.0574 µM | Ratio IC50 [2]: > 174; Ratio IC50 [3]: > 174; IC50 [5]: > 10 µM; IC50 [6]: > 10 µM

Row | Compound | inhibition [1] | IC50 [4] | further results
20 | CC(C)CC1c2[nH]c3ccccc3c2CC2c3cc4c(cc3CCN21)OCO4 (centres undefined) | 0% | – | –
21 | COc1ccc2c(c1OC)CN1CCc3cc4c(cc3[C@@H]1C2)OCO4 [CANADINE] | – | 5.4 µM | –
22 | COc1cc2c(cc1O)[C@@H]1Cc3c(Cl)cc(OC)c(O)c3CN1CC2 | – | – | Ki [7]: 1.38 µM
23 | COc1ccc(C2c3[nH]c4ccccc4c3CC3c4ccc(OC)cc4CCN32)cc1 (centres undefined) | 80% | > 10 µM | –
24 | COc1ccc2c(c1)CCN1Cc3[nH]c4ccccc4c3CC21 (centres undefined) | 100% | 0.552 µM | –
25 | COc1cc2cc[n+]3c(c2cc1OC)Cc1ccc(OC)c(OC)c1C3 | – | 7.6 µM | –
26 | Fc1ccc2c3c([nH]c2c1)CN1CCc2cc4c(cc2C1C3)OCO4 (centres undefined) | 100% | 2.06 µM | –
27 | CCCCOc1cc2c(cc1OC)CCN1Cc3[nH]c4ccc(OC)cc4c3CC21 (centres undefined) | 98% | 2.29 µM | –
28 | Fc1ccc2[nH]c3c(c2c1)CC1c2cc4c(cc2CCN1C3)OCO4 (centres undefined) | 100% | 0.254 µM | Ratio IC50 [2]: > 39.4; Ratio IC50 [3]: 33.1; IC50 [5]: > 10 µM; IC50 [6]: 8.39 µM
29 | c1ccc2c3c([nH]c2c1)CN1CCc2cc4c(cc2C1C3)OCO4 (centres undefined) | 100% | 0.125 µM | Ratio IC50 [2]: > 80; Ratio IC50 [3]: > 80; IC50 [5]: > 10 µM; IC50 [6]: > 10 µM
30 | COc1cc2c(cc1OC)C1Cc3c([nH]c4ccccc34)C(CC(C)C)N1CC2 (centres undefined) | 72% | – | –
31 | CCCOc1cc2c(cc1OC)CCN1Cc3[nH]c4ccc(OC)cc4c3CC21 (centres undefined) | 100% | 0.225 µM | Ratio IC50 [2]: > 44.4; Ratio IC50 [3]: > 44.4; IC50 [5]: > 10 µM; IC50 [6]: > 10 µM
32 | CCOc1cc2c(cc1OC)CCN1Cc3[nH]c4ccc(OC)cc4c3CC21 (centres undefined) | 75% | – | –
33 | COc1cc2c(cc1OC)C1Cc3c([nH]c4ccccc34)C(c3ccccc3)N1CC2 (centres undefined) | 0% | – | –
34 | COc1cc2c(cc1OC)C1Cc3c([nH]c4ccccc34)CN1CC2 (centres undefined) | 60% | – | –
35 | COc1ccc(C2c3[nH]c4ccccc4c3CC3c4cc(OC)c(OC)cc4CCN32)cc1 (centres undefined) | 21% | – | –
36 | CCOc1ccccc1OCCN[C@H](C)Cc1ccc(OC)c(S(N)(=O)=O)c1 [TAMSULOSIN] | 100% | – | IC50 [5]: 0.0048 µM; IC50 [6]: 0.0014 µM
37 | COc1cccc2[nH]c3c(c12)CC1c2cc4c(cc2CCN1C3)OCO4 (centres undefined) | 100% | 0.202 µM | Ratio IC50 [2]: > 19.4; Ratio IC50 [3]: > 19.4; IC50 [5]: > 10 µM; IC50 [6]: > 10 µM
38 | COc1ccc2[nH]c3c(c2c1)CC1c2cc4c(cc2CCN1C3)OCO4 (centres undefined) | 99% | 0.0176 µM | Ratio IC50 [2]: > 568; Ratio IC50 [3]: 229; IC50 [8]: 0.0454 µM; IC50 [9]: > 1 µM; Ratio IC50 [10]: >22.02; minimal effective dose [11]: 10 mg/kg; minimal effective dose [12]: 3 mg/kg; IC50 [13]: 16.5 µM; IC50 [5]: > 10 µM; IC50 [6]: 4.04 µM
